Source: patent US10590113B2, “6-hydroxy-4-oxo-1,4-dihydropyrimidine-5-carboxamides as APJ agonists” (priority 2016, dated 2020)

Each molecule was assayed against T1, human APJ receptor (Homo sapiens, UniProt P35414) (assay: Intracellular cAMP Accumulation Assay (APJ hcAMP, HTRF)). Details: not given.
T1 construct: expressed in transfected cells; host or cells: HEK293
T1 sequence (P35414 1-380): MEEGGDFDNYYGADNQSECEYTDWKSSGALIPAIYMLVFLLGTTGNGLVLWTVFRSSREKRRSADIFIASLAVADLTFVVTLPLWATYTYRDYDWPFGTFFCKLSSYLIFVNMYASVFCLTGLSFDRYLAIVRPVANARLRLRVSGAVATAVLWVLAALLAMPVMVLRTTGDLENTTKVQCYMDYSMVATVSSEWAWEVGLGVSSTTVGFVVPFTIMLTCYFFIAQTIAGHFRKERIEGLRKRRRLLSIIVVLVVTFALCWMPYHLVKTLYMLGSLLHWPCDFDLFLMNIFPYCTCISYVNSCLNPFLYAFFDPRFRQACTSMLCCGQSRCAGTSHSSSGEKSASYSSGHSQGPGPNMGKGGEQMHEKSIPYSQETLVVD
Format: cell-based
In short: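 Stably transfected HEK293 cells (5,000/well) incubated 30 min at room temperature with serially diluted compound, […] and 2 μM forskolin. cAMP measured by HTRF after 60 min with detection reagents, quantified against a cAMP standard curve; EC50 from variable-slope sigmoidal fit of inhibition of forskolin-stimulated cAMP.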

Row | Compound | EC50 [nM]
1 | CCCCc1nc(O)c(C(=O)N2CC[C@@H](c3ccccc3)C2)c(=O)n1-c1c(CC)cccc1CC [Example 86, 2-butyl-3-(2,6-diethylphenyl)-6-hydroxy-5-[(3S)-3-phenylpyrrolidine-1-carbonyl]-3,4-dihydropyrimidin-4-one] | 0.01 to 10

Same assay, conditions: HEK293 cells stably expressing human APJ receptor; inhibition of forskolin-mediated cAMP production; read-out: Human APJ cAMP EC50 potency range

Row | Compound | EC50 [nM]
2 | COc1ccccc1C1CCN(C(=O)c2c(O)n(-c3c(OC)cccc3OC)c(-c3cncc(C)c3)nc2=O)C1 (centres unmarked) [Example 7, 1-(2,6-dimethoxyphenyl)-6-hydroxy-5-(3-(2-methoxyphenyl)pyrrolidine-1-carbonyl)-2-(5-methylpyridin-3-yl)pyrimidin-4(1H)-one] | 0.01 to 10

Same assay, conditions: human APJ, cAMP accumulation; potency range class; read-out: hAPJ cAMP EC50 Potency range

Row | Compound | EC50 [nM]
3 | CCc1cccc(CC)c1-n1c(-c2ccn(CC)n2)nc(=O)c(C(=O)N2CCC(c3ncc(F)cc3F)C2)c1O (single isomer, unassigned) [Example 309, 1-(2,6-diethylphenyl)-5-[3-(3,5-difluoropyridin-2-yl)pyrrolidine-1-carbonyl]-2-(1-ethyl-1H-pyrazol-3-yl)-6-hydroxy-1,4-dihydropyrimidin-4-one] | 0.01 to 10
4 | CCc1cccc(CC)c1-n1c(-c2csc(C(C)C)n2)nc(=O)c(C(=O)N2CCC(c3ncc(F)cc3F)C2)c1O (single isomer, unassigned) [Example 297, 1-(2,6-diethylphenyl)-5-[3-(3,5-difluoropyridin-2-yl)pyrrolidine-1-carbonyl]-6-hydroxy-2-[2-(propan-2-yl)-1,3-thiazol-4-yl]-1,4-dihydropyrimidin-4-one] | 0.01 to 10
5 | CCn1ccc(-c2nc(=O)c(C(=O)N3CCC(c4ccc(F)cc4F)C3)c(O)n2-c2c(OC)cccc2OC)n1 (single isomer, unassigned) [Example 269, 5-[3-(2,4-difluorophenyl)pyrrolidine-1-carbonyl]-1-(2,6-dimethoxyphenyl)-2-(1-ethyl-1H-pyrazol-3-yl)-6-hydroxy-1,4-dihydropyrimidin-4-one] | 0.01 to 10
6 | COc1cccc(OC)c1-n1c(-c2ccnc(C)c2)nc(=O)c(C(=O)N2CCC(c3ccc(F)cc3F)C2)c1O (single isomer, unassigned) [Example 254, 5-[3-(2,4-difluorophenyl)pyrrolidine-1-carbonyl]-1-(2,6-dimethoxyphenyl)-6-hydroxy-2-(2-methylpyridin-4-yl)-1,4-dihydropyrimidin-4-one] | 0.01 to 10
7 | CCCCc1nc(=O)c(C(=O)N2CCC(c3ncc(F)cc3F)C2)c(O)n1[C@H](c1cccc(C#N)c1)C1CC1 (stereo partly drawn) [Example 351, 3-[(S)-{2-butyl-5-[3-(3,5-difluoropyridin-2-yl)pyrrolidine-1-carbonyl]-4-hydroxy-6-oxo-1,6-dihydropyrimidin-1-yl}(cyclopropyl)methyl]benzonitrile] | 0.01 to 10
8 | CCn1ccc(-c2nc(=O)c(C(=O)N3CCC(c4ncc(F)cc4F)C3)c(O)n2-c2cccc(C(C)C)c2)n1 (single isomer, unassigned) [Example 293, 5-[3-(3,5-difluoropyridin-2-yl)pyrrolidine-1-carbonyl]-2-(1-ethyl-1H-pyrazol-3-yl)-6-hydroxy-1-[3-(propan-2-yl)phenyl]-1,4-dihydropyrimidin-4-one] | 0.01 to 10
9 | COc1cccc(OC)c1-n1c(-c2cnn(C)c2)nc(=O)c(C(=O)N2CCC(c3c(F)cccc3F)C2)c1O (single isomer, unassigned) [Example 249, 5-[3-(2,6-difluorophenyl)pyrrolidine-1-carbonyl]-1-(2,6-dimethoxyphenyl)-6-hydroxy-2-(1-methyl-1H-pyrazol-4-yl)-1,4-dihydropyrimidin-4-one] | 0.01 to 10
10 | CCCCc1nc(=O)c(C(=O)N2CCC(c3ncc(Cl)cc3F)C2)c(O)n1[C@@H](COC)c1ccccc1 (stereo partly drawn) [Example 350, 2-butyl-5-[3-(5-chloro-3-fluoropyridin-2-yl)pyrrolidine-1-carbonyl]-6-hydroxy-3-[(1R)-2-methoxy-1-phenylethyl]-3,4-dihydropyrimidin-4-one] | 0.01 to 10
11 | CCc1cccc(CC)c1-n1c(-c2nc(C)cs2)nc(=O)c(C(=O)N2CCC(c3ncc(Cl)cc3F)C2)c1O (single isomer, unassigned) [Example 312, 5-[3-(5-chloro-3-fluoropyridin-2-yl)pyrrolidine-1-carbonyl]-1-(2,6-diethylphenyl)-6-hydroxy-2-(4-methyl-1,3-thiazol-2-yl)-1,4-dihydropyrimidin-4-one] | 0.01 to 10
12 | CCCCc1nc(=O)c(C(=O)N2CCC(c3ncc(F)cc3F)C2)c(O)n1[C@@H](COC)c1ccccc1 (stereo partly drawn) [Example 349, 2-butyl-5-[3-(3,5-difluoropyridin-2-yl)pyrrolidine-1-carbonyl]-6-hydroxy-3-[(1R)-2-methoxy-1-phenylethyl]-3,4-dihydropyrimidin-4-one] | 0.01 to 10

Same assay, conditions: human APJ, intracellular cAMP accumulation; read-out: hAPJ cAMP EC50 Potency range

Row | Compound | EC50 [nM]
13 | CCCCc1nc(=O)c(C(=O)N2CC[C@H](c3ccccc3)C2)c(O)n1[C@H](C)C1CC1 [Example 142, 2-butyl-3-[(1R)-1-cyc1opropylethyl]-6-hydroxy-5-[(3R)-3-phenylpyrrolidine-1-carbonyl]-3,4-dihydropyrimidin-4-one] | 10 to 100
14 | CCCCc1nc(=O)c(C(=O)N2CCC(c3cccc(F)c3)C2)c(O)n1[C@@H](CC)c1ccccc1 (single isomer, unassigned) [Example 119] | 0.01 to 10
15 | COc1cccc(OC)c1-n1c(COC(C)C)nc(=O)c(C(=O)N2CCC(c3ccc(F)cc3F)C2)c1O (single isomer, unassigned) [Example 163, 5-[3-(2,4-difluorophenyl)pyrrolidine-1-carbonyl]-1-(2,6-dimethoxyphenyl)-6-hydroxy-2-[(propan-2-yloxy)methyl]-1,4-dihydropyrimidin-4-one] | 0.01 to 10
16 | COc1cccc(OC)c1-n1c(COC(C)(C)C)nc(=O)c(C(=O)N2CC[C@H](c3ccccc3)C2)c1O [Example 51, 2-[(tert-butoxy)methyl]-1-(2,6-dimethoxyphenyl)-6-hydroxy-5-[(3R)-3-phenylpyrrolidine-1-carbonyl]-1,4-dihydropyrimidin-4-one] | 0.01 to 10
17 | CCCCc1nc(=O)c(C(=O)N2CC[C@@H](c3ccccc3)C2)c(O)n1[C@@H](C)c1ccccc1OC [Example 151, 2-butyl-6-hydroxy-3-[(1S)-1-(2-methoxypheny)ethyl]-5-[(3S)-3-phenylpyrrolidine-1-carbonyl]-3,4-dihydropyrimidin-4-one] | 10 to 100
18 | COc1cccc(OC)c1-n1c(COC(C)(C)C)nc(=O)c(C(=O)N2CCC(c3ccccc3F)C2)c1O (single isomer, unassigned) [Example 50, 2-[(tert-butoxy)methyl]-1-(2,6-dimethoxyphenyl)-5-[3-(2-fluorophenyl)pyrrolidine-1-carbonyl]-6-hydroxy-1,4-dihydropyrimidin-4-one] | 0.01 to 10
19 | CCCCc1nc(=O)c(C(=O)N2CC[C@@H](c3ccccc3)C2)c(O)n1[C@H](C)c1ccccc1 [Example 132, 2-butyl-6-hydroxy-3-[(1R)-1-phenylethyl]-5-[(3S)-3-phenylpyrrolidine-1-carbonyl]-3,4-dihydropyrimidin-4-one] | 10 to 100
20 | CCCCc1nc(=O)c(C(=O)N2CCC(c3cccc(F)c3)C2)c(O)n1-c1c(OC)cccc1OC (single isomer, unassigned) [Example 78, 2-butyl-1-(2,6-dimethoxyphenyl)-5-[3-(3-fluorophenyl)pyrrolidine-1-carbonyl]-6-hydroxy-1,4-dihydropyrimidin-4-one] | 0.01 to 10
21 | CCCCc1nc(=O)c(C(=O)N2CCC(c3cccc(F)c3)C2)c(O)n1[C@@H](CC)c1ccccc1 (single isomer, unassigned) [Example 115] | 0.01 to 10
22 | CCCCc1nc(=O)c(C(=O)N2CC[C@@H](OCc3ccccc3)C2)c(O)n1-c1c(OC)cccc1OC [Example 59, 5-[(3R)-3-(benzyloxy)pyrrolidine-1-carbonyl]-2-butyl-1-(2,6-dimethoxyphenyl)-6-hydroxy-1,4-dihydropyrimidin-4-one] | 0.01 to 10
23 | COc1cccc(OC)c1-n1c(CC2CC2)nc(=O)c(C(=O)N2CCC(c3cccc(Cl)c3)C2)c1O (racemic) [Example 28, 5-(3-(3-chlorophenyl)pyrrolidine-1-carbonyl)-2-(cyclopropylmethyl)-1-(2,6-dimethoxyphenyl)-6-hydroxypyrimidin-4(1H)-one] | 0.01 to 10

Same assay, conditions: read-out: hAPJ cAMP EC50 Potency range

Row | Compound | EC50 [nM]
24 | CCOCc1nc(=O)c(C(=O)N2CCC(Oc3cc(F)ccc3Cl)CC2)c(O)n1-c1c(OC)cccc1OC [Example 378, 5-(4-(2-chloro-5-fluorophenoxy)piperidine-1-carbonyl)-1-(2,6-dimethoxyphenyl)-2-(ethoxymethyl)-6-hydroxypyrimidin-4(1H)-one] | 0.01 to 10
25 | CCCCc1nc(=O)c(C(=O)N2CCC(Oc3ccc(Cl)cc3)CC2)c(O)n1-c1c(OC)cccc1OC [Example 373, 2-butyl-5-(4-(4-chlorophenoxy)piperidine-1-carbonyl)-1-(2,6-dimethoxyphenyl)-6-hydroxypyrimidin-4(1H)-one] | 0.01 to 10
26 | CCCCc1nc(=O)c(C(=O)N2CCC(Oc3ccc(C(C)(C)C)cc3)CC2)c(O)n1-c1c(OC)cccc1OC [Example 381, 2-butyl-5-(4-(4-(tert-butyl)phenoxy)piperidine-1-carbonyl)-1-(2,6-dimethoxyphenyl)-6-hydroxypyrimidin-4(1H)-one] | 10 to 100
